Series [1] concerns the target Coronin-1A (Homo sapiens) (UniProt P31146). As to the kind of experiment: Binding affinity to coronin-1A in human MDA-MB-453 cells measured after 6 hrs by pull-down assay. Format: cell-based. The conditions noted are these: dose <= 20.0 µM, DDE = dose-dependent effect.
Series [2] addresses Elongation factor 2 (Homo sapiens) (UniProt P13639). As to the kind of experiment: Binding affinity to elongation factor 2 in human MDA-MB-453 cells measured after 6 hrs by pull-down assay. Format: cell-based. The following applies: dose <= 20.0 µM, DDE = dose-dependent effect.
Series [3] in a line: GSH reactivity in pH 7.4 buffer assessed as GSH adduct formation at 1 mM by HPLC analysis. The following applies: pH 7.4, 1000 µM. Format: physicochemical.
Series [4] can be described thus: GSH reactivity in pH 7.4 buffer assessed as GSH adduct formation by measuring half life at 50 uM by near-UV absorbance spectra analysis. Format: physicochemical. The following applies: pH 7.4, 50 µM.
Series [5] is filed under the species Homo sapiens. As to the kind of experiment: Binding affinity to ADP-bound full-length human HSP70 assessed as Cys574 adduct formation at SBDalpha domain by LC-MS/MS analysis.
The species entered for series [6] is Homo sapiens. Nature of the series: Binding affinity to ADP-bound full-length human HSP70 assessed as Cys603 adduct formation at SBDalpha domain by LC-MS/MS analysis.
The species entered for series [7] is Homo sapiens. As to the kind of experiment: Binding affinity to human HSP70 SBDalpha domain (537 to 610 residues) C574S mutant assessed as Cys603 adduct formation by size exclusion chromatography.
For series [8], the species on record is Homo sapiens. Nature of the series: Binding affinity to ADP-bound full-length human HSP70 assessed as Cys603 adduct formation by size exclusion chromatography.
Series [9] deals with HEK-293T. Nature of the series: Cytotoxicity against HEK293T cells up to 20 uM measured after 24 hrs. The following applies: human. Format: toxicity, cell-based.
The test system of series [10] is DOHH-2. As to the kind of experiment: Up regulation of HSP70 expression in human DOHH-2 cells at 8 uM measured after 4 to 24 hrs by Western blot analysis. The conditions noted are these: time 4-24 hrs. Format: functional, cell-based. On the technique in general: Immunoblotting shows a protein as a band on a membrane.
Series [11] deals with Tubulin alpha (Homo sapiens) (UniProt P0DPH7+P68366+Q71U36+P68363+Q9BQE3+Q6PEY2+A6NHL2+Q9NY65). As to the kind of experiment: Binding affinity to alpha-tubulin in human DOHH-2 cells measured after 6 hrs by pull-down assay. Format: cell-based. The conditions noted are these: DDE = dose-dependent effect.
Series [12] addresses Tubulin beta (Homo sapiens) (UniProt P68371+Q9H4B7+Q13509+P04350+Q3ZCM7+P07437+Q13885+Q9BVA1+Q9BUF5+A6NNZ2). As to the kind of experiment: Binding affinity to beta-tubulin in human DOHH-2 cells measured after 6 hrs by pull-down assay. Format: cell-based. The conditions noted are these: DDE = dose-dependent effect.
The target of series [13] is T1, Protein disulfide-isomerase A4 (Homo sapiens) (UniProt P13667).
T1 sequence (whole entry): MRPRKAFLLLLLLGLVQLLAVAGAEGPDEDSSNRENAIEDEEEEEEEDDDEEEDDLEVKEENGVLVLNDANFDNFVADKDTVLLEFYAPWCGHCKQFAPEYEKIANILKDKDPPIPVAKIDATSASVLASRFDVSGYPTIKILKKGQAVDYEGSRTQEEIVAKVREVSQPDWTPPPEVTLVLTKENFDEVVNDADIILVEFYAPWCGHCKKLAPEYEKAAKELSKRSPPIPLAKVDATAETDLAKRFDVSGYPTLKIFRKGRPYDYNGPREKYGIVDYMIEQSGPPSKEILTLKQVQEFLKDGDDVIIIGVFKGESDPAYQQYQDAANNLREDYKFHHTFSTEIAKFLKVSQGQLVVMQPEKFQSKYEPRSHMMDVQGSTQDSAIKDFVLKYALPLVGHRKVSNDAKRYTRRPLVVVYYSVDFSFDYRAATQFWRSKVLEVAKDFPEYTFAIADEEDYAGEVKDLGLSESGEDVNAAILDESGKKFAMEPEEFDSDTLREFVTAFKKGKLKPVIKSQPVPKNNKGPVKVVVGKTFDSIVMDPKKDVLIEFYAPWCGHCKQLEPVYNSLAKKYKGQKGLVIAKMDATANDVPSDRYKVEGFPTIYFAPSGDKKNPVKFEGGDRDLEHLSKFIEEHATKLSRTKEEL
Nature of the series: Binding affinity to PDIA4 in human DOHH-2 cells measured after 6 hrs by pull-down assay. Format: cell-based. The conditions noted are these: DDE = dose-dependent effect.

Series [14] has as its target T2, Protein disulfide-isomerase A6 (Homo sapiens) (UniProt Q15084).
T2 sequence (whole entry): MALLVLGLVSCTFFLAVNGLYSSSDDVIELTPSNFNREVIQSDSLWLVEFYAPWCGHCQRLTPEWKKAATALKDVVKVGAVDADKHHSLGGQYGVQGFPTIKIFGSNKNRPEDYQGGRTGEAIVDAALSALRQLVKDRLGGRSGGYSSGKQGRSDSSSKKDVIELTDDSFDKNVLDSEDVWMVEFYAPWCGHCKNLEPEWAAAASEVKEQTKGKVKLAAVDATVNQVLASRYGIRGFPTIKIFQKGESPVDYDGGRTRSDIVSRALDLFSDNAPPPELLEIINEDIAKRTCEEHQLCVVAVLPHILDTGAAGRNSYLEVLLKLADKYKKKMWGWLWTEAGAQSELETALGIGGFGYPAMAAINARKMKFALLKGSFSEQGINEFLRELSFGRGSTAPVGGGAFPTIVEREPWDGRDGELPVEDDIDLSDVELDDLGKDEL
As to the kind of experiment: Binding affinity to PDIA6 in human DOHH-2 cells measured after 6 hrs by pull-down assay. Format: cell-based. The conditions noted are these: DDE = dose-dependent effect.

Series [15] concerns the target T3, Thioredoxin-dependent peroxide reductase, mitochondrial (Homo sapiens) (UniProt P30048).
T3 sequence (whole entry): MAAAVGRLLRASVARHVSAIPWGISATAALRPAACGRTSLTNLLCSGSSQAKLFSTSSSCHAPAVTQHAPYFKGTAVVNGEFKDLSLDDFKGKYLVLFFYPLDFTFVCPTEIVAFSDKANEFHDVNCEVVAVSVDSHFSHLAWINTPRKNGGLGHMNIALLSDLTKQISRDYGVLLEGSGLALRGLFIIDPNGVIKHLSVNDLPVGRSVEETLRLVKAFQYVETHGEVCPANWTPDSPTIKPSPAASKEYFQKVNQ
Nature of the series: Binding affinity to PRDX3 in human MDA-MB-453 cells measured after 6 hrs by pull-down assay. Format: cell-based. The following applies: dose <= 20.0 µM, DDE = dose-dependent effect.

The target in series [16] is T4, Peroxiredoxin-6 (Homo sapiens) (UniProt P30041).
T4 sequence (whole entry): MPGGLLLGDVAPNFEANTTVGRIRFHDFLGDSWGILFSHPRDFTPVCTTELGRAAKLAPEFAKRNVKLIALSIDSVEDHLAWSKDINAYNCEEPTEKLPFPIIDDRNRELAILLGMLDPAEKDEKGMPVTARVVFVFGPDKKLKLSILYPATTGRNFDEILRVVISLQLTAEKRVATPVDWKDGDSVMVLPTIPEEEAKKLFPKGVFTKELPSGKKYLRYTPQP
As to the kind of experiment: Binding affinity to PRDX6 in human MDA-MB-453 cells measured after 6 hrs by pull-down assay. Format: cell-based. The conditions noted are these: dose <= 20.0 µM, DDE = dose-dependent effect.

Series [17] addresses Elongation factor 2 (Homo sapiens) (UniProt P13639). As to the kind of experiment: Binding affinity to elongation factor 2 in human DOHH-2 cells by MS analysis. Format: cell-based.
Series [18] deals with Coronin-1A (Homo sapiens) (UniProt P31146). Nature of the series: Binding affinity to coronin-1A in human DOHH-2 cells by MS analysis. Format: cell-based.
Series [19] concerns the target T4, Peroxiredoxin-6 (Homo sapiens). Nature of the series: Binding affinity to PRDX6 in human DOHH-2 cells by MS analysis. Format: cell-based.
The target of series [20] is Glutathione S-transferase 3, mitochondrial (Homo sapiens) (UniProt O14880). Nature of the series: Binding affinity to MGST3 in human DOHH-2 cells by MS analysis. Format: cell-based.

The source made the active and inactive calls. The calls are words filed in the database; no cut-off is given here.

Chain of Coronin-1A (Homo sapiens) (P31146 whole entry): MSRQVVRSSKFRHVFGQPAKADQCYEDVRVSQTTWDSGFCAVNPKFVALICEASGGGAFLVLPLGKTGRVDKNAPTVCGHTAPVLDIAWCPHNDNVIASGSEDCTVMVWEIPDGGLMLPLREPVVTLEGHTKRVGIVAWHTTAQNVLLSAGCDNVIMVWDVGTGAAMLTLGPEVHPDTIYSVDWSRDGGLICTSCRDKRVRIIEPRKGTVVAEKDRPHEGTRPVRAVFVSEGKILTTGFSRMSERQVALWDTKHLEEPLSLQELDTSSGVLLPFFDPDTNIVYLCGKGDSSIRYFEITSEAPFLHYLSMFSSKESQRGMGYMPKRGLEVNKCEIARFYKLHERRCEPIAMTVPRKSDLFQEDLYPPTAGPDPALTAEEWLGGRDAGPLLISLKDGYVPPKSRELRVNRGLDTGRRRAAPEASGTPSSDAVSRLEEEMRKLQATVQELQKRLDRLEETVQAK
Chain of Glutathione S-transferase 3, mitochondrial (Homo sapiens) (O14880 whole entry): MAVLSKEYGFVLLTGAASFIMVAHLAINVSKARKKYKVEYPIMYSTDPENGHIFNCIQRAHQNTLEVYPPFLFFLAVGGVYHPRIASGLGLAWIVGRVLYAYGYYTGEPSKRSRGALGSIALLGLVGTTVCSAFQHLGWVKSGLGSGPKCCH

On to `C#Cc1cccc(C#CS(N)(=O)=O)c1`, for which the Activity result in series [1] is “Dde”; in series [2], “Dde”; in series [3], “Active”; in series [9], “Non-Toxic”; in series [11], “Dde”; in series [12], “Dde”. For the same molecule, the Activity entry in series [13], in series [14], in series [15] and in series [16] was “Dde” throughout. Further, in series [4], the t1/2 was found to be 3.91 min. Further, the result in [5], in series [6], in [7], in [8], in [10] and in series [17] was Active. Moreover, the outcome in series [18], in series [19] and in series [20] was Active.

These data come from ChEMBL document CHEMBL5143564, “PES derivative PESA is a potent tool to globally profile cellular targets of PES” (Bioorg Med Chem Lett, 2022).
